Data published in paper PMC12155096 (International Journal of Molecular Sciences, 2025).
Counter-ions that a name gives are not always drawn. Like-named read-outs stand apart in the source and are kept apart here.

Experiments:
Test in all cases: biochemical; call rule not given here
[1] = target: Photinus pyralis (firefly) luciferase (Photinus pyralis, UniProt P08659); assay type: biochemical; design: Luciferase Efficacy: unit not given here
[2] = target: T1, human CYP1A2 (Homo sapiens, UniProt P05177)
T1 sequence (P05177 1-516): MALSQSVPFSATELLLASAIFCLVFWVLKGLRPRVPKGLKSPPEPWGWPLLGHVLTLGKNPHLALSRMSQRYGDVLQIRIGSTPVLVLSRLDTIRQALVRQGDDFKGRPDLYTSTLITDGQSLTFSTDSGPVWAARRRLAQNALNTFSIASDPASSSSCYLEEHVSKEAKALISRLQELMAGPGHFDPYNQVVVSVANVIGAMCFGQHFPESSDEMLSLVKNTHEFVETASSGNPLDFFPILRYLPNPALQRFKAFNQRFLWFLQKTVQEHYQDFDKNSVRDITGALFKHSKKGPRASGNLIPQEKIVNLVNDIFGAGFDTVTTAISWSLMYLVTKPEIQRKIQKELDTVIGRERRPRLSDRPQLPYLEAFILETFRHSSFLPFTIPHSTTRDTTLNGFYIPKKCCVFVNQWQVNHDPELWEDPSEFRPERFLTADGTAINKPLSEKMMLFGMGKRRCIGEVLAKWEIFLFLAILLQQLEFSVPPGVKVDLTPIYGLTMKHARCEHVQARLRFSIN

[3] = target: human CYP2C9 (Homo sapiens, UniProt P11712)
[4] = target: human CYP2C19 (Homo sapiens, UniProt P33261)
[5] = target: human CYP2D6 (Homo sapiens, UniProt P10635)
[6] = target: CYP3A4 (Homo sapiens, UniProt P08684)
[7] = CYP1A2 IC50 (half-maximal inhibitory concentration)
[8] = CYP2C9 IC50 (half-maximal inhibitory concentration)
[9] = CYP2C19 IC50 (half-maximal inhibitory concentration)
[10] = CYP2D6 IC50 (half-maximal inhibitory concentration)
[11] = CYP3A4 IC50 (half-maximal inhibitory concentration)

Chain of CYP3A4 (P08684 whole entry): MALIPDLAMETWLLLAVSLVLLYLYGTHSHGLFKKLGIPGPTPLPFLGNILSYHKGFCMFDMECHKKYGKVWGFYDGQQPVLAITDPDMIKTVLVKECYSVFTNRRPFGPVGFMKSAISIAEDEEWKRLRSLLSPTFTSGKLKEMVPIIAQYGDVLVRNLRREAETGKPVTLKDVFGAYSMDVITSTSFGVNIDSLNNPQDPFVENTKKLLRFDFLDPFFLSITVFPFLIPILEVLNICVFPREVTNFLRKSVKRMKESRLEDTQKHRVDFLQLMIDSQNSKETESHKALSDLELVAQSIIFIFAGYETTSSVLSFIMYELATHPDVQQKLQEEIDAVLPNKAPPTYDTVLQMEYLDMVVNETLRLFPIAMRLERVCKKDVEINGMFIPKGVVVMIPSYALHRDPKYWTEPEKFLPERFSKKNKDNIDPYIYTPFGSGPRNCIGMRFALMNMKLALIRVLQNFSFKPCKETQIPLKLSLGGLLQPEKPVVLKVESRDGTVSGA
Chain of human CYP2D6 (P10635 whole entry): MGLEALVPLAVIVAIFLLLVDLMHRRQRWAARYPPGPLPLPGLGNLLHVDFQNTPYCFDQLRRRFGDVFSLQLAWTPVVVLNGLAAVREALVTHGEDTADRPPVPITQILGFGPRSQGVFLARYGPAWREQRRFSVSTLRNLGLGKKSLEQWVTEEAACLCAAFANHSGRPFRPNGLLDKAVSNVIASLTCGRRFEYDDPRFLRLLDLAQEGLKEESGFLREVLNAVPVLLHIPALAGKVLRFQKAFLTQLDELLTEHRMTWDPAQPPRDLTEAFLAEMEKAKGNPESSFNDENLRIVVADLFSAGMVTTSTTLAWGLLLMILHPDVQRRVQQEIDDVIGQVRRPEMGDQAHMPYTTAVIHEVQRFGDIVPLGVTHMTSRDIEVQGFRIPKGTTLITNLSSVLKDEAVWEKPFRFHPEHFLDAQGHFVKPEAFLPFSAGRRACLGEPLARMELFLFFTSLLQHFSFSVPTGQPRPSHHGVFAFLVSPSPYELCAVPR
Chain of Photinus pyralis (firefly) luciferase (P08659 whole entry): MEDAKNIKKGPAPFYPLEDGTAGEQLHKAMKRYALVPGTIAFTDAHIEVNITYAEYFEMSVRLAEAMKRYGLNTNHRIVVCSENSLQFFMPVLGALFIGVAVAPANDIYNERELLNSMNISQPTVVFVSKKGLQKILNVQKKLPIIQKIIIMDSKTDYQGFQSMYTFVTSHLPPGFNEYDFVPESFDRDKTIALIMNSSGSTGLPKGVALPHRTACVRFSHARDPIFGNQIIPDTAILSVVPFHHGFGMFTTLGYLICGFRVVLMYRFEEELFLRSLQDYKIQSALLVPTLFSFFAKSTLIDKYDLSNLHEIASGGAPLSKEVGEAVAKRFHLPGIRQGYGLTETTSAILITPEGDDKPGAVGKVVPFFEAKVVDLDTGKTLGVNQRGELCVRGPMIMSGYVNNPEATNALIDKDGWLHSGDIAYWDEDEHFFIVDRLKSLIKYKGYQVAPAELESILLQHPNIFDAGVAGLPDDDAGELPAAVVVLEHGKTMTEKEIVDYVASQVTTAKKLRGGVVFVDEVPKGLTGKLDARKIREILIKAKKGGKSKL
Chain of human CYP2C9 (P11712 whole entry): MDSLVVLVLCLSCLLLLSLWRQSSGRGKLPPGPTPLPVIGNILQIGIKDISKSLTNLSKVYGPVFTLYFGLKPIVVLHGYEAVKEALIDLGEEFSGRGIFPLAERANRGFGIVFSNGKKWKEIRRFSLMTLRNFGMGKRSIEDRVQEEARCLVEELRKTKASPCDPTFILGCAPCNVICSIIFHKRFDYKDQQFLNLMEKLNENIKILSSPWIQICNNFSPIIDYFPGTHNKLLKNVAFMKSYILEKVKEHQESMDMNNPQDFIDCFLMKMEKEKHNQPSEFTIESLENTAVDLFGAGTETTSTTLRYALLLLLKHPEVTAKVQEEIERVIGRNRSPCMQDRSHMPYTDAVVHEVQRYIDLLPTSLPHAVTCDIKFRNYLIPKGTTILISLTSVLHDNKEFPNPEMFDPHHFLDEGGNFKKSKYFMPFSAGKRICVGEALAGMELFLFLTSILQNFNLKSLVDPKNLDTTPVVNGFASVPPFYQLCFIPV
Chain of human CYP2C19 (P33261 whole entry): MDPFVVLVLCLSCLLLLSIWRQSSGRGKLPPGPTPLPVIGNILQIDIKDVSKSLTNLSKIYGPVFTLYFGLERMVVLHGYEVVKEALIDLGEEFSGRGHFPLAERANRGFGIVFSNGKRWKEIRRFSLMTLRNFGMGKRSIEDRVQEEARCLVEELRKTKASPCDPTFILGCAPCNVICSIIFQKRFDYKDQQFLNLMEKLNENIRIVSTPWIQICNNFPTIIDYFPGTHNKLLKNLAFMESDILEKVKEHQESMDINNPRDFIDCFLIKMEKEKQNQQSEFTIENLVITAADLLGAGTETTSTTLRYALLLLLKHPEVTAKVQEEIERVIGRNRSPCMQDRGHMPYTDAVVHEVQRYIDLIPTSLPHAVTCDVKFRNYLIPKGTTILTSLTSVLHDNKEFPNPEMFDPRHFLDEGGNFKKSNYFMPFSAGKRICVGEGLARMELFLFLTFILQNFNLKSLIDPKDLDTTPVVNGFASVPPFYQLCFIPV

Compound	Luciferase IC50 (half-maximal inhibitory concentration) [1]	IC50 [2, 7] [µM]	IC50 [3, 8] [µM]	IC50 [4, 9] [µM]	IC50 [5, 10] [µM]	IC50 [6, 11] [µM]	IC50 [3] [µM]	IC50 [5] [µM]	Luciferase IC50 [1]	IC50 ([2]; CYP1A2 IC50) [µM]	IC50 ([4]; CYP2C19 IC50) [µM]	IC50 ([6]; CYP3A4 IC50) [µM]	also measured
CC1COC(Cn2cncn2)(c2ccc(Oc3ccc(Cl)cc3)cc2Cl)O1 (centres unmarked) [Difenoconazole]	Inactive	27.4	1.22	0.08	34.4	0.08							
CC(C(O)c1ccccc1)N(C)CCOC(c1ccccc1)c1ccccc1 (centres unmarked) [Difeterol]	Inactive						16.8 ± 1.09	0.11 ± 0.06					IC50 [2]: 23.5 ± 5.69 µM; IC50 [4]: 7.12 ± 1.98 µM; IC50 [6]: 0.62 ± 0.07 µM
CCOP(=S)(OCC)SCCS(=O)(=O)CC [Disulfoton sulfone]	Inactive	26		0.3		2.61	1.64	13.4					
CCCCCCCCCCCCN [Dodecylamine hydrochloride]									Inactive	2.55	0.47	34.3	IC50 ([3]; CYP2C9 IC50): 6.64 µM; IC50 ([5]; CYP2D6 IC50): 3.3 µM
O=S1OCC2C(CO1)C1(Cl)C(Cl)=C(Cl)C2(Cl)C1(Cl)Cl (centres unmarked) [Endosulfan]									Inactive	35.8	3.19	0.39	IC50 ([3]; CYP2C9 IC50): 37.2 µM; IC50 ([5]; CYP2D6 IC50): 18 µM
CCC(=O)O[C@H]1[C@H](O[C@@H]2[C@@H](C)[C@H](O[C@H]3C[C@@](C)(OC)[C@@H](O)[C@H](C)O3)[C@@H](C)C(=O)O[C@H](CC)[C@@](C)(O)[C@H](O)[C@@H](C)C(=O)[C@H](C)C[C@@]2(C)O)O[C@H](C)C[C@@H]1N(C)C [Erythromycin estolate]							32.7 ± 12.3	30.5 ± 9.76					IC50 [1]: 55 µM; IC50 [2]: 33.5 ± 11 µM; IC50 [4]: 47.1 µM; IC50 [6]: 0.29 ± 0.04 µM
CCOP(=S)(OCC)SCSP(=S)(OCC)OCC [Ethion]							0.52	37	Inactive	19.6	0.34	0.97	
CCOc1cc(C(C)(C)C)ccc1C1COC(c2c(F)cccc2F)=N1 (centres unmarked) [Etoxazole]	Inactive	19.6	9.94	3.43	10.5	0.11							
OC(c1ccc(Cl)cc1)(c1cncnc1)c1ccccc1Cl (centres unmarked) [Fenarimol]	Inactive	71.4	6.1	0.24	35.6	0.17							
N#CC(CCc1ccc(Cl)cc1)(Cn1cncn1)c1ccccc1 (centres unmarked) [Fenbuconazole]	Inactive	35.8	1.94	0.17	38.6	0.05							
COP(=S)(OC)Oc1ccc([N+](=O)[O-])c(C)c1 [Fenitrothion]		1.04	6.12	0.55	35	8.48							IC50 [1]: 67 µM
O=[N+]([O-])c1cc(C(F)(F)F)c(Cl)c([N+](=O)[O-])c1Nc1ncc(C(F)(F)F)cc1Cl [Fluazinam]		35.6	0.73	14.8	46.2	18.7							IC50 [1]: 89.4 µM
C[Si](Cn1cncn1)(c1ccc(F)cc1)c1ccc(F)cc1 [Flusilazole]	Inactive	27.9	2.28	0.06	33	0.16							
OC(Cn1cncn1)(c1ccc(F)cc1)c1ccccc1F (centres unmarked) [Flutriafol]	Inactive	35.7	0.77	1.63	37	0.24							
CCCCC(O)(Cn1cncn1)c1ccc(Cl)cc1Cl (centres unmarked) [Hexaconazole]	Inactive	37	0.52	0.3	33	0.11							
COP(N)(=S)Oc1ccccc1C(=O)OC(C)C (centres unmarked) [Isocarbophos]	Inactive	1.14	5.11	0.13	46.1	1.61							
CCOP(=S)(NC(C)C)Oc1ccccc1C(=O)OC(C)C (centres unmarked) [Isofenphos]	Inactive	9.71		0.19		0.68	1.44	60.6					

Compound	Luciferase IC50 (half-maximal inhibitory concentration) [1]	IC50 [2, 7] [µM]	IC50 [3, 8] [µM]	IC50 [4, 9] [µM]	IC50 [5, 10] [µM]	IC50 [6, 11] [µM]	IC50 [3] [µM]	IC50 [5] [µM]	Luciferase IC50 [1]	IC50 ([2]; CYP1A2 IC50) [µM]	IC50 ([4]; CYP2C19 IC50) [µM]	IC50 ([6]; CYP3A4 IC50) [µM]	also measured
CCOP(=S)(OCC)Oc1cc(-c2ccccc2)on1 [Isoxathion]							0.75	35.6		3.92	2.55	2.11	IC50 [1]: 33 µM
O=C1C2(Cl)C3(Cl)C4(Cl)C(Cl)(Cl)C5(Cl)C3(Cl)C1(Cl)C5(Cl)C24Cl (centres unmarked) [Kepone]							6.47	67.9	Inactive	36.4	0.87	3.13	
CCCCN(CCCC)CC(O)c1cc(Cl)cc2c1-c1ccc(Cl)cc1/C2=C/c1ccc(Cl)cc1 (centres unmarked) [Lumefantrine]									Inactive	14.8	26.9	16.8	IC50 ([3]; CYP2C9 IC50): 16.2 µM; IC50 ([5]; CYP2D6 IC50): 0.69 µM
CCN(CC)C(=O)[C@@H]1C=C2c3cccc4[nH]cc(c34)C[C@H]2N(C)C1 [Lysergide]									Inactive	151	156	71.8	IC50 ([3]; CYP2C9 IC50): 72.9 µM; IC50 ([5]; CYP2D6 IC50): 0.43 µM
CCOC(=O)N(C)C(=O)CSP(=S)(OCC)OCC [Mecarbam]									Inactive	2.91	0.09	2.6	IC50 ([3]; CYP2C9 IC50): 0.7 µM; IC50 ([5]; CYP2D6 IC50): 27.5 µM
CC(C)Nc1ccc(Nc2ccccc2)cc1 [N-Isopropyl-N'-phenyl-p-phenylenediamine]										35.5	4.25	17.3	IC50 [1]: 34.2 µM; Luciferase Efficacy [1]: 34.17 ± 2.23 (-75 ± 7) %; IC50 ([3]; CYP2C9 IC50): 0.97 µM; IC50 ([5]; CYP2D6 IC50): 9.04 µM
CCOC(=O)C(SP(=S)(OC)OC)c1ccccc1 (centres unmarked) [Phenthoate]							1.28	49.3	Inactive	3.79	0.3	3.33	
CCN(CC)c1nc(C)cc(OP(=S)(OC)OC)n1 [Pirimiphos-methyl]	Inactive	1.49		0.19		2.22	23.6	53.3					
CCCN(CCOc1c(Cl)cc(Cl)cc1Cl)C(=O)n1ccnc1 [Prochloraz]	Inactive	0.22	0.81	0.05	0.53	0.07							
C#CCOS(=O)OC1CCCCC1Oc1ccc(C(C)(C)C)cc1 (centres unmarked) [Propargite]	Inactive	7.75	0.49	0.78	16	1.87							
OC(Cc1ccccc1Cl)(Cn1nc[nH]c1=S)C1(Cl)CC1 (centres unmarked) [Prothioconazole]		41.9	0.93	2.55	47.5	8							IC50 [1]: 65.8 µM; Luciferase Efficacy [1]: 65.83 ± 4.46 (-26 ± 4) %
CCOP(=S)(OCC)Oc1cnc2ccccc2n1 [Quinalphos]							0.91	38.5	Inactive	2.25	0.47	4.57	
CC1(C)C2(Cl)C(Cl)C(Cl)C(Cl)(C(Cl)Cl)C1(Cl)C2Cl (centres unmarked) [Strobane]									Inactive	41.2	1.59	0.82	IC50 ([3]; CYP2C9 IC50): 9.89 µM; IC50 ([5]; CYP2D6 IC50): 44 µM
CCOP(=S)(Oc1cnc(C(C)(C)C)nc1)OC(C)C (centres unmarked) [Tebupirimfos]							1.79	34.3	Inactive	24	0.62	1.5	
COC(=O)c1c(C(F)F)nc(C(F)(F)F)c(C2=NCCS2)c1CC(C)C [Thiazopyr]	Inactive	0.4	34.3	5.43	54.3	1.93							
CC(C)(C)C(=O)C(Oc1ccc(Cl)cc1)n1cncn1 (centres unmarked) [Triadimefon]	Inactive	37	11.3	1.92	51.6	0.45							
C[C@H]1CCCC(=O)CCC/C=C/c2cc(O)cc(O)c2C(=O)O1 [Zearalenone]	Inactive	25.3		16.6		0.12	5.74	46.5					
